Measurements published in patent US10550142B2, “Quercetin-based compound” (AMOREPACIFIC CORPORATION, priority 2016, dated 2020).

Molecular target: T1, β-amyloid (Aβ1-42) (Homo sapiens, UniProt P05067)
T1 construct: β-amyloid (Aβ1-42, AnaSpec Inc, USA) was obtained; purchased AnaSpec Inc, USA
Assay: Beta-amyloid aggregation inhibition, fluorescence analysis (Thioflavin T assay)
Format: biochemical
Details: compound 10 μM; for Increased RFU (amount of aggregated β-amyloid): Aβ1-42 0.1 mg/ml, 37° C., 150 minutes; for Increased RFU (% of Pos.Cont.): aggregated β-amyloid compared to the positive control (no compound) = 100; for decreased aggregation compared with the positive control: positive control taken as 100%
Description: The beta-amyloid aggregation inhibitory effect of quercetin 3-O-[3-O″-(E)-p-coumaroyl][β-D-glucopyranosyl-(1→3)-O-α-L-rhamnopyranosyl-(1→6)-O-β-D-glucopyranoside] and quercetin 3-O-[3-O″-(E)-p-coumaroyl][α-L-rhamnopyranosyl-(1→6)-O-β-D-glucopyranoside] was determined by fluorescence analysis (Thioflavin T assay). Specifically, β-amyloid (Aβ1-42, AnaSpec Inc, USA) was obtained and used at a concentration of 0.1 mg/ml. It was stored at −80° C. prior to use. Each of morin (20 μM), phenol red (20 μM), quercetin 3-O-[3-O″-(E)-p-coumaroyl][β-D-glucopyranosyl-(1→3)-O-α-L-rhamnopyranosyl-(1→6)-O-β-D-glucopyranoside] (1 mg/ml), and quercetin 3-O-[3-O″-(E)-p-coumaroyl][α-L-rhamnopyranosyl-(1→6)-O-β-D-glucopyranoside] (1 mg/ml) was diluted to these concentrations in DMSO. In order to determine the degree of inhibition of Aβ1-42 aggregation, each compound at the above concentration was diluted to 10 μM in 50 μL of 0.01 M sodium phosphate buffer solution. Then, 40 μL of 0.1 mg/ml Aβ1-42 was added thereto, followed by addition of 10 μL of 2 mM Thioflavin T. The fluorescence was then measured with a fluorescence spectrometer (RF-5300PC, SHIMADZU CORPORATION, Japan) at 37° C. and intervals of 5 minutes for 150 minutes. In the table above, “RFU” denotes relative fluorescence unit, and “increased RFU” indicates the amount of aggregated β-amyloid. “Increased RFU (% of Pos.Cont.)” indicates the percentage of aggregated β-amyloid compared to the positive control. “Novel substance 31” indicates quercetin 3-O-[3-O″-(E)-p-coumaroyl][β-D-glucopyranosyl-(1→3)-O-α-L-rhamnopyranosyl-(1→6)-O-β-D-glucopyranoside], and “novel substance 32” indicates quercetin 3-O-[3-O″-(E)-p-coumaroyl][α-L-rhamnopyranosyl-(1→6)-O-β-D-glucopyranoside].

T1 sequence (P05067 672-713 limits assumed): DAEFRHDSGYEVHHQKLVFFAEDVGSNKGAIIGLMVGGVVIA

Row | Structure (SMILES) | Increased RFU (amount of aggregated β-amyloid) | Increased RFU (% of Pos.Cont.) | decreased aggregation compared with the positive control
1 | CC1OC(OCC2OC(Oc3c(-c4ccc(O)c(O)c4)oc4cc(O)cc(O)c4c3=O)C(O)C(OC(=O)/C=C/c3ccc(O)cc3)C2O)C(O)C(O)C1O [Novel substance 32, quercetin 3-O-[3-O″-(E)-p-coumaroyl][α-L-rhamnopyranosyl-(1→6)-O-β-D-glucopyranoside]] | 12148 RFU | 83.2% | 16.8%
2 | CC1OC(OCC2OC(Oc3c(-c4ccc(O)c(O)c4)oc4cc(O)cc(O)c4c3=O)C(O)C(OC(=O)/C=C/c3ccc(O)cc3)C2O)C(O)C(OC2OC(CO)C(O)C(O)C2O)C1O [Novel substance 31, quercetin 3-O-[3-O″-(E)-p-coumaroyl][β-D-glucopyranosyl-(1→3)-O-α-L-rhamnopyranosyl-(1→6)-O-β-D-glucopyranoside]] | 12955 RFU | 88.8% | 11.2%
